According to ChEMBL document CHEMBL4507317, “Data for DCP probe BAY-899” (2021):

How the values were obtained:
[1] = target: 5-hydroxytryptamine receptor 2A (Homo sapiens, UniProt P28223); experiment: GPCRScan assay: inhibition of 5-HT2A; design: radioligand conc. used [nm] 1.2 – 2.4, parental cells HEKT
[2] = target: T1, 5-hydroxytryptamine receptor 2B (Homo sapiens, UniProt P41595); experiment: GPCRScan assay: inhibition of 5-HT2B; design: radioligand conc. used [nm] 1.0 – 2.0, parental cells stable HEK
T1 sequence (P41595 whole entry): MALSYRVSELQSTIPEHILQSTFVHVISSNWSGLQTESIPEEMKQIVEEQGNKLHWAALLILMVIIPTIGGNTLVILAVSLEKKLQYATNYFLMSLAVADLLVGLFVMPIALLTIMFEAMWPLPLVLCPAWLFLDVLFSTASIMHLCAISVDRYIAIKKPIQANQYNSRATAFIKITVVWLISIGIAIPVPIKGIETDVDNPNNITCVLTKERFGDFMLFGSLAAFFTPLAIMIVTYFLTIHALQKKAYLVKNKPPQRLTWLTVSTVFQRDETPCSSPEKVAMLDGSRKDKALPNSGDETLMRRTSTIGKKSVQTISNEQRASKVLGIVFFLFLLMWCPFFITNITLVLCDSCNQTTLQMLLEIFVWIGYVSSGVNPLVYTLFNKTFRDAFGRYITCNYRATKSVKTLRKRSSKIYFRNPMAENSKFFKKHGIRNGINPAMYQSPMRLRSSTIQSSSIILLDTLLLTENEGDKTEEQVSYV

[3] = target: 5-hydroxytryptamine receptor 2C (Homo sapiens, UniProt P28335); experiment: GPCRScan assay: inhibition of 5-HT2C; design: radioligand conc. used [nm] 1.0 – 2.5, parental cells HEK T
[4] = target: Lutropin-choriogonadotropic hormone receptor (Homo sapiens, UniProt P22888); experiment: Cell-based assay (LH Antagonism)
[5] = system: Proto-oncogene tyrosine-protein kinase receptor Ret (Homo sapiens), P07949 [V804L]; settings: Compound concentration 1000.0 nM
Sequence of Proto-oncogene tyrosine-protein kinase receptor Ret (Homo sapiens), P07949 [V804L] (P07949 whole entry V804L): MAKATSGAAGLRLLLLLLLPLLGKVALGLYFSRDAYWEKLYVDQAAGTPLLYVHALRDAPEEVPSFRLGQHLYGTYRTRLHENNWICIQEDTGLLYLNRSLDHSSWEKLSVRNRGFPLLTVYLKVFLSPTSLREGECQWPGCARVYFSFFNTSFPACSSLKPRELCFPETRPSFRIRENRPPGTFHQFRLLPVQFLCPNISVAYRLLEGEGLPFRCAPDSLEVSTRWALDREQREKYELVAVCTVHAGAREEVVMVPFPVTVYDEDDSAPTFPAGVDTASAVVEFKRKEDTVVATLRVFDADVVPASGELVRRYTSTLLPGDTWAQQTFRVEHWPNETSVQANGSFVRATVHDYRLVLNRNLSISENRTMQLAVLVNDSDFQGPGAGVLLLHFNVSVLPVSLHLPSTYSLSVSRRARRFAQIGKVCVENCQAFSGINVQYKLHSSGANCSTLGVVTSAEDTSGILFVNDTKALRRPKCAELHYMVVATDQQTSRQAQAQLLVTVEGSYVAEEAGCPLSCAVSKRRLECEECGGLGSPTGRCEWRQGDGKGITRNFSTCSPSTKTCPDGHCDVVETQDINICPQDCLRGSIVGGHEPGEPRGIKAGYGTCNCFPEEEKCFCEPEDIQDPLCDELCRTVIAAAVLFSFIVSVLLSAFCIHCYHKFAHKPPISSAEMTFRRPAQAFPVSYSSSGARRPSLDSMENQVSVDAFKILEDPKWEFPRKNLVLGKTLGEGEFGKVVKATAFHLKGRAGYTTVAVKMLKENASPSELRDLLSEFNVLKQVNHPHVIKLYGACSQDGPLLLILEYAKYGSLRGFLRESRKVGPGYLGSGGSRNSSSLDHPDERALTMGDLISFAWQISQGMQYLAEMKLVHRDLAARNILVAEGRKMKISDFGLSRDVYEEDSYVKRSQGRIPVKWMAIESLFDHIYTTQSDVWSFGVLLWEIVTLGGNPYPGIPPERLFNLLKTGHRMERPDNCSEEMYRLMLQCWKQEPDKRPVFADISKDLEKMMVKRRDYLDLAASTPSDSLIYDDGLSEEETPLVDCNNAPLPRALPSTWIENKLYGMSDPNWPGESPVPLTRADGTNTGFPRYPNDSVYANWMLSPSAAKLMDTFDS

[6] = target: 5-hydroxytryptamine receptor 5A (Homo sapiens) (UniProt P47898); settings: Compound concentration 10.0 uM
[7] = target: Delta-type opioid receptor (Homo sapiens) (UniProt P41143); settings: Compound concentration 10.0 uM
[8] = target: T2, Alpha-1A adrenergic receptor (Homo sapiens) (UniProt P35348); settings: Compound concentration 10.0 uM
T2 sequence (whole entry): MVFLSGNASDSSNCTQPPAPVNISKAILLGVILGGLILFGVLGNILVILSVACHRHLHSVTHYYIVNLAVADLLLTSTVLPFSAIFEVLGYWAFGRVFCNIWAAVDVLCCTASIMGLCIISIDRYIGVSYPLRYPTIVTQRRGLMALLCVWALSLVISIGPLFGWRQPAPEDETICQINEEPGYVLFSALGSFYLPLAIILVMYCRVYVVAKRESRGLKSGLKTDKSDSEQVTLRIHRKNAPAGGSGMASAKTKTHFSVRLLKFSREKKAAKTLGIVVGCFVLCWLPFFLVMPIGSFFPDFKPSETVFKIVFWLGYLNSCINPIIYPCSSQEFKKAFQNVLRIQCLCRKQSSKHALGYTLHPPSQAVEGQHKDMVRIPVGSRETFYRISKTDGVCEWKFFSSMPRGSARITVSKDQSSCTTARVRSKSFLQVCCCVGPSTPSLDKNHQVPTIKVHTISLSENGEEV

[9] = target: Muscarinic acetylcholine receptor M3 (Homo sapiens) (UniProt P20309); settings: Compound concentration 10.0 uM
[10] = target: Adenosine receptor A2b (Homo sapiens) (UniProt P29275); experiment: A2B Eurofins Bayer panel; settings: Compound concentration 10.0 uM
[11] = target: Adenosine receptor A3 (Homo sapiens) (UniProt P0DMS8); experiment: A3 Eurofins Bayer panel; settings: Compound concentration 10.0 uM
[12] = target: T2, Alpha-1A adrenergic receptor (Homo sapiens); experiment: alpha 1A Eurofins Bayer panel; settings: Compound concentration 10.0 uM
[13] = target: T3, Alpha-2A adrenergic receptor (Homo sapiens) (UniProt P08913); experiment: alpha 2A Eurofins Bayer panel; settings: Compound concentration 10.0 uM
T3 sequence (whole entry): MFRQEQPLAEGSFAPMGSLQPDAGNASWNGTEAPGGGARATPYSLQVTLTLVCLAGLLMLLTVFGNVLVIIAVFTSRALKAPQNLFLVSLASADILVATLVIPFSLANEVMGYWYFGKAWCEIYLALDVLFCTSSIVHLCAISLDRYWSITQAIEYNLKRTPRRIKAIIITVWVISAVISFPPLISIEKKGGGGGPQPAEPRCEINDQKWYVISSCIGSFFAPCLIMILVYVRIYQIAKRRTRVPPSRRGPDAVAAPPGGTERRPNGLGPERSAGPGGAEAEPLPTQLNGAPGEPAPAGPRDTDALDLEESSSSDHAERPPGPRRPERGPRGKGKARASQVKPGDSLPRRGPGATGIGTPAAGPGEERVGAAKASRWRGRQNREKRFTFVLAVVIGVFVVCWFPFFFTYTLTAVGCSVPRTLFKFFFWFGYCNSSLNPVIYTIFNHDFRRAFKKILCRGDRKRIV

[14] = target: Beta-1 adrenergic receptor (Homo sapiens) (UniProt P08588); experiment: beta 1 Eurofins Bayer panel; settings: Compound concentration 10.0 uM
Sequence of Beta-1 adrenergic receptor (Homo sapiens) (P08588 whole entry, looked up): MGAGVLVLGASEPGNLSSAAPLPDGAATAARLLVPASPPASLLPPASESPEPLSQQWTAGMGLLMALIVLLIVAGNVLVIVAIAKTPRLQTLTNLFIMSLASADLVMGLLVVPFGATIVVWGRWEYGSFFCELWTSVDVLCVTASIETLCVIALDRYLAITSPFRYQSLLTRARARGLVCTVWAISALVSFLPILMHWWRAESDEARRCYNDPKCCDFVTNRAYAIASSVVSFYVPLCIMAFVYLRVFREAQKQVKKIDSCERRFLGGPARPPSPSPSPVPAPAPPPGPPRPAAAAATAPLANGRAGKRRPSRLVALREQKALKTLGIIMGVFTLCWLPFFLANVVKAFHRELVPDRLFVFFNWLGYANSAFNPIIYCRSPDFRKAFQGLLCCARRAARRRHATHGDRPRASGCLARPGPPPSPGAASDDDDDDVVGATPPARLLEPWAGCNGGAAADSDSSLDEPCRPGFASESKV

[15] = target: Beta-2 adrenergic receptor (Homo sapiens) (UniProt P07550); experiment: beta 2 Eurofins Bayer panel; settings: Compound concentration 10.0 uM
[16] = target: Histamine H2 receptor (Homo sapiens) (UniProt P25021); experiment: H2 Eurofins Bayer panel; settings: Compound concentration 10.0 uM
Sequence of Histamine H2 receptor (Homo sapiens) (P25021 whole entry): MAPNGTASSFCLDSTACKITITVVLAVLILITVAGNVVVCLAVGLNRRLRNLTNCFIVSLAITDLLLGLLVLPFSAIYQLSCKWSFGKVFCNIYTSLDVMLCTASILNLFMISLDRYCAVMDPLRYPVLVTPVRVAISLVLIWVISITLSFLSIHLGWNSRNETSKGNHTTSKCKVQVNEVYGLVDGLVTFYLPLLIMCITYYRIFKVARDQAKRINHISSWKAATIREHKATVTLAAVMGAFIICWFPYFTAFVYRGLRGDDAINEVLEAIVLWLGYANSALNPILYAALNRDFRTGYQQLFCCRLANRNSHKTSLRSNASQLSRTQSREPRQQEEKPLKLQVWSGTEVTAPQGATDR

[17] = target: Histamine H3 receptor (Homo sapiens) (UniProt Q9Y5N1); experiment: H3 Eurofins Bayer panel; settings: Compound concentration 10.0 uM
Sequence of Histamine H3 receptor (Homo sapiens) (Q9Y5N1 whole entry): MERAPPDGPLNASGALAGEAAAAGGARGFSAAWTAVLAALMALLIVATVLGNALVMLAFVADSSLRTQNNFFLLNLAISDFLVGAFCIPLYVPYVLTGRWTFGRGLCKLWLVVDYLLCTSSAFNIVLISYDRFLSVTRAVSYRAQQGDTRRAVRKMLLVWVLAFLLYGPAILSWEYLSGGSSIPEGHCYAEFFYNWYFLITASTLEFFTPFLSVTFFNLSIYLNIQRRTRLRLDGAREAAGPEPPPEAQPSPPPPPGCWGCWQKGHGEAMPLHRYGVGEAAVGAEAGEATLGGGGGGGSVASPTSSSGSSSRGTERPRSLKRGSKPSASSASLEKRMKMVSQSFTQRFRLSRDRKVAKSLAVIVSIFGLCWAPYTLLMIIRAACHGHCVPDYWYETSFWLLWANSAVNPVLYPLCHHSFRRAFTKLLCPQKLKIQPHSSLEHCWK

[18] = target: Melanocortin receptor 4 (Homo sapiens) (UniProt P32245); experiment: MC4 Eurofins Bayer panel; settings: Compound concentration 10.0 uM
Sequence of Melanocortin receptor 4 (Homo sapiens) (P32245 whole entry): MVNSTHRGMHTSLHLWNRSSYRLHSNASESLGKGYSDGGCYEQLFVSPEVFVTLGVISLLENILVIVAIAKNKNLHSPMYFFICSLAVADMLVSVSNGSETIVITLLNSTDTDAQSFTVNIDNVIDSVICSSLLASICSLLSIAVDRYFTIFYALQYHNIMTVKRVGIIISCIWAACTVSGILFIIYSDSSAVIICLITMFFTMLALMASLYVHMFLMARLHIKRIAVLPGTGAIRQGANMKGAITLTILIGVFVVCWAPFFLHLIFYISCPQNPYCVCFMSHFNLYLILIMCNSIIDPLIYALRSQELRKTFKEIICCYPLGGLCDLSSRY

[19] = target: Motilin receptor (Homo sapiens) (UniProt O43193); experiment: Motilin Eurofins Bayer panel; settings: Compound concentration 10.0 uM
Sequence of Motilin receptor (Homo sapiens) (O43193 whole entry): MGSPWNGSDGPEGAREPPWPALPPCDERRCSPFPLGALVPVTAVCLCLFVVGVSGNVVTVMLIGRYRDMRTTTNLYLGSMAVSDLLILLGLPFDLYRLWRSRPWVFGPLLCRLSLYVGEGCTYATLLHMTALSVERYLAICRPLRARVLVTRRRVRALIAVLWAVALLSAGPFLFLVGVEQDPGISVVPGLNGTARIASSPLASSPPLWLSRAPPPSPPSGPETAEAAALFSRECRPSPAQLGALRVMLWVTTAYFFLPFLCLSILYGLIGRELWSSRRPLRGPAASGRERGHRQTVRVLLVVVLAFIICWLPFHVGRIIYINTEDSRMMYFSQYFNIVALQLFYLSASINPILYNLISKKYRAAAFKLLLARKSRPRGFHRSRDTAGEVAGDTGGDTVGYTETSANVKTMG

[20] = target: Substance-P receptor (Homo sapiens) (UniProt P25103); experiment: NK1 Eurofins Bayer panel; settings: Compound concentration 10.0 uM
Sequence of Substance-P receptor (Homo sapiens) (P25103 whole entry): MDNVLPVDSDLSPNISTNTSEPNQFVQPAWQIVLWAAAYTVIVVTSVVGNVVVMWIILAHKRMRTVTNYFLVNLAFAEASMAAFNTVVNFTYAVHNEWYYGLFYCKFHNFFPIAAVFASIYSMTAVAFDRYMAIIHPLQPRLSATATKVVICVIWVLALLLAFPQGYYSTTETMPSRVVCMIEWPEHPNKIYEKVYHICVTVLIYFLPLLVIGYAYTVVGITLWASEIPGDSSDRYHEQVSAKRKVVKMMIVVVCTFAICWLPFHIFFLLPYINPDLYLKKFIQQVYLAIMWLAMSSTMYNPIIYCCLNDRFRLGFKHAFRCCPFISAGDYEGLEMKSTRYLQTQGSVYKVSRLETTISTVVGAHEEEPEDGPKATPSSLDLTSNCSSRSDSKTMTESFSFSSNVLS

[21] = target: Kappa-type opioid receptor (Homo sapiens, UniProt P41145); experiment: kappa (KOP) Eurofins Bayer panel; settings: Compound concentration 10.0 uM
[22] = target: Prostaglandin E2 receptor EP3 subtype (Homo sapiens) (UniProt P43115); experiment: EP3 Eurofins Bayer panel; settings: Compound concentration 10.0 uM
Sequence of Prostaglandin E2 receptor EP3 subtype (Homo sapiens) (P43115 whole entry): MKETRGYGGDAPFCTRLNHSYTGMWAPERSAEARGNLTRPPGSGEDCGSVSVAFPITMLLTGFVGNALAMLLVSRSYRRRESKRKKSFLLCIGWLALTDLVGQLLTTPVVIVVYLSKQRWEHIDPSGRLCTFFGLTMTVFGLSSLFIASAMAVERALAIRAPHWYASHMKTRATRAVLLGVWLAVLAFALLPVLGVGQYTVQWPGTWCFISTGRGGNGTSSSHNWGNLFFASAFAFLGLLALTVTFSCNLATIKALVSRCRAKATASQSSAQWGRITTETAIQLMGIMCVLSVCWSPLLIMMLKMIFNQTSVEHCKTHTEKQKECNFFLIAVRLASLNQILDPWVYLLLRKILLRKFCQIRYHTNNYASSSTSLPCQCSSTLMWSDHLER

[23] = target: T4, 5-hydroxytryptamine receptor 1A (Homo sapiens) (UniProt P08908); experiment: 5-HT1A Eurofins Bayer panel; settings: Compound concentration 10.0 uM
T4 sequence (whole entry): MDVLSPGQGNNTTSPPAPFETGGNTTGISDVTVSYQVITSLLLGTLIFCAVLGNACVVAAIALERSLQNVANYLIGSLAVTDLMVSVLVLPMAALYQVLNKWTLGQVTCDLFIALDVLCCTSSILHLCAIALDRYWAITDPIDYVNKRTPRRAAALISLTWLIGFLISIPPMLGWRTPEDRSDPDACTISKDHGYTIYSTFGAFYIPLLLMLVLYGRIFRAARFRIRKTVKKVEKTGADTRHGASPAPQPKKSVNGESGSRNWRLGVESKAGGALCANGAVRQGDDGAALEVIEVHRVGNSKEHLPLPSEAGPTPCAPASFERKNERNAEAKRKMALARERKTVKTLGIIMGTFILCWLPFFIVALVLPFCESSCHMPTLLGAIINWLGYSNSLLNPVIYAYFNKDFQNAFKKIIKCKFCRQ

[24] = target: T1, 5-hydroxytryptamine receptor 2B; experiment: 5-HT2B Eurofins Bayer panel; settings: Compound concentration 10.0 uM
[25] = target: Somatostatin receptor type 4 (Homo sapiens) (UniProt P31391); experiment: sst4 Eurofins Bayer panel; settings: Compound concentration 10.0 uM
Sequence of Somatostatin receptor type 4 (Homo sapiens) (P31391 whole entry): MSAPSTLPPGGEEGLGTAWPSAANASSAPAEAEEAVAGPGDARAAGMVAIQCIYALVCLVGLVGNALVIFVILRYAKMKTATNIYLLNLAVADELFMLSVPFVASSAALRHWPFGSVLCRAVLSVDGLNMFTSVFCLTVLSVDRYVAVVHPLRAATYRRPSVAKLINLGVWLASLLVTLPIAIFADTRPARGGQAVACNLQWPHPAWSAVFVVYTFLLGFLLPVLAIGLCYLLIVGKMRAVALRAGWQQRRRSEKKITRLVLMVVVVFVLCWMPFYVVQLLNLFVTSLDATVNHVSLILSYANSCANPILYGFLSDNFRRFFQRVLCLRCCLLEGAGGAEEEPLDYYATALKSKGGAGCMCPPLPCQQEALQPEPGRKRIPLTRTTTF

[26] = system: Receptor-type tyrosine-protein kinase FLT3 (Homo sapiens), P36888 [K663Q]; settings: Compound concentration 1000.0 nM
[27] = target: 5-hydroxytryptamine receptor 7 (Homo sapiens) (UniProt P34969); settings: Compound concentration 10.0 uM

Question: With O=C(Nc1ccc(Oc2ccc(F)cc2)cc1)N1CCc2ncccc2[C@H]1c1ccc(F)cc1 [BAY-897] as the molecule, how does the Ki [1] read?
Answer: 3.67 µM

Question: And the Ki [2]?
Answer: 5.25 µM

Question: What about the Ki [3] of the same molecule?
Answer: 1.08 µM

Question: What about the IC50 [4] of the same molecule?
Answer: > 16 µM (not active)

Question: What about the residual activity [5] of the same molecule?
Answer: 95%

Question: What about the inhibition [6] of the same molecule?
Answer: 7.18%

Question: What about the inhibition [7] of the same molecule?
Answer: 32.7%

Question: And the inhibition [8]?
Answer: 16.2%

Question: What about the inhibition [9] of the same molecule?
Answer: -3.47%

Question: Which results are given for O=C(Nc1cnc(Oc2ccc(F)cc2)nc1)N1CCc2ncccc2[C@@H]1c1ccc(F)cc1 [BAY-899]?
Answer: Activation (% of control) [10]: -1%; Inhibition (% of control) [10]: 16%; Activation (% of control) [11]: 25%; Inhibition (% of control) [11]: -6%; Activation (% of control) [12]: 2%; Inhibition (% of control) [12]: 45%; Activation (% of control) [13]: -2%; Inhibition (% of control) [13]: -16%; Activation (% of control) [14]: -1%; Inhibition (% of control) [14]: 13%; Activation (% of control) [15]: -3%; Inhibition (% of control) [15]: 26%; Activation (% of control) [16]: -2%; Inhibition (% of control) [16]: 34%; Activation (% of control) [17]: 38%; Inhibition (% of control) [17]: -19%; Activation (% of control) [18]: -2%; Inhibition (% of control) [18]: 11%; Activation (% of control) [19]: -1%; Inhibition (% of control) [19]: 28%; Activation (% of control) [20]: -3%; Inhibition (% of control) [20]: 24%; Activation (% of control) [21]: 56%; Inhibition (% of control) [21]: -10%; Activation (% of control) [22]: -1%; Inhibition (% of control) [22]: -5%; Activation (% of control) [23]: 1%; Inhibition (% of control) [23]: 0%; Activation (% of control) [24]: 1%; Inhibition (% of control) [24]: 18%; Activation (% of control) [25]: 23%; Inhibition (% of control) [25]: 6%; residual activity [26]: 100%; residual activity [5]: 86%; inhibition [27]: 2.63%; inhibition [8]: -3.5%
